# Measured values reported in patent publication US20030206914A1, “Synthetic antigens for CD1-restricted immune responses” (priority 1997, published 2003).
# Entries after “also recorded” stand apart in the source; their conditions may differ. Read-outs that look alike come from different tables or passages of the source.
# Tests used:
# [1] = test system: CD8-1 T cell line (CD1c-restricted αβ); assay: CD8-1 T cell line response; type: cell-based, human
# CD1b = CD1b (Homo sapiens, UniProt P29016); assay: Binding of glycolipid to CD1b
# Excerpt: Thus, CD1b binds to both natural and synthetic GMM but not to an analog that has only one long alkyl chain instead of two short alkyl chains.
# [2] = test system: LDN5 T cell line (CD1b-restricted); type: cell-based, human
# [3] = test system: CD1b transfected C1R lymphoblastoid target cells; assay: LDN5 cytolysis assay, CD1b transfected targets; type: cell-based, human; conditions: E:T 25:1; targets cultured with antigen (0.5 mg/ml purified glycolipid; 5 μg/ml synthetic GMM)
# Excerpt: (§1) There was no response in the absence of antigen.
# (§2) Similarly treated mock, CD1a or CD1c transfected cells were not lysed (FIG. 2B). The Na adduct of the fully synthetic GMM containing C32 mycolic acid was detected by ESI-MS analysis to be a single ion peak at m/z 681.6 (FIG. 2C). This synthetic GMM antigen lacks long chain length (compared with C80 mycolic acids of mycobacteria), cyclopropanation, double bonds and R groups, ruling out all of these natural chemical variations of the mycolic acid moiety as necessary antigenic determinants. The discovery of a synthetic CD1-restricted antigen with a simple and well defined structure allowed the systematic study of individual molecular features of the antigen that determined the specificity of the T cell response.
# (§3) LDN5 was derived from the same human leprosy skin lesion that gave rise to the previously described LAM reactive T cell line LDN4 (P. A. Sieling, et al. (1995) Science 269:227). Cultures were stimulated initially with autologous GM-CSF and IL-4 treated CD1^+ monocytes and M. leprae sonicate. After establishment of LDN5, cultures were maintained in IL-2 supplemented medium and periodically stimulated with allogenic CD1^+ APCs and M. phlei sonicate (X/1000) containing GMM. […] T cell culture methods, proliferation assays and cytolysis assays were carried out according to the methods described in E. M. Beckman, et al. (1996) J. Immunol. […]
# [4] = test system: mock, CD1a or CD1c transfected C1R cells; assay: LDN5 cytolysis assay, control transfectants; type: cell-based, human; conditions: E:T 25:1; similarly treated with antigen
# Excerpt: as §1, §2, §3
# [5] = test system: DN1 T cell line (CD1b-restricted, specific for free mycolic acid); assay: DN1 T cell line response; type: cell-based, human
# Excerpt: The role of the carbohydrate moiety of the glycolipid in T cell recognition was separately evaluated.
# LDN5 was derived from the same human leprosy skin lesion that gave rise to the previously described LAM reactive T cell line LDN4 (P. A. Sieling, et al. (1995) Science 269:227). Cultures were stimulated initially with autologous GM-CSF and IL-4 treated CD1^+ monocytes and M. leprae sonicate. After establishment of LDN5, cultures were maintained in IL-2 supplemented medium and periodically stimulated with allogenic CD1^+ APCs and M. phlei sonicate (X/1000) containing GMM. […] T cell culture methods, proliferation assays and cytolysis assays were carried out according to the methods described in E. M. Beckman, et al. (1996) J. Immunol. 157:2795. All bioassays were done in triplicate and reported as mean +/−standard deviation.
# APCs = assay: Uptake and processing of CD1b-presented antigens by APCs; type: cell-based
# Excerpt: The uptake and processing pathway for CD1b-presented antigens was also defined. Several steps in the presentation of two related classes of CD1b-presented antigens, free and glycosylated mycolates, were examined. […] Thus, larger lipids, such as trehalose dimycolate cannot be broken down into GMM within cells. Given that the hydrophobic groove can accommodate approximately 32 CH2 units when measured in crystalline form, it is likely that the CD1 protein can open to encompass larger alkyl chains or that the chains can protrude from the groove.
# [6] = test system: 14 other T cell lines including SP-F3 and DN6
# [7] = test system: CD1c-restricted T cell lines; assay: Recognition by other CD1c-restricted T cell lines from different donors; type: cell-based, human; conditions: lines derived from different donors
# Excerpt: Based on a survey of known mycobacterial phospholipids, the leading candidate structure for this antigen was that of a glycosyl phosphopolyprenol (GPP). See, Besra, G. S., et al. (1994) Proc. Natl. Acad. Sci. USA 91:12735-12739. The fragmentation pattern was consistent with the identification of the antigenic M. avium as a GPP, presuming that the lipid of m/z 420 was the hexaprenyl component of a fully saturated hexose phosphohexaprenol. To assess this, the ability of the T cell line CD8-1 to recognize purified mycobacterial GPPs was tested. The structure of Myc-PL, a mannosyl phosphopolyprenol esterified to a mycolic acid, had been determined in detail. Besra, G. S., et al. (1994) supra. Pure myc-PL was cleaved with strong base to yield free mycolate and mannosyl phosphoheptaprenol (MPP). Besra, G. S., et al. (1994) supra. […] Rush, J. S., et al.(1993) J. Biol. Chem. 268:13110-13117. […] Thus, these studies established that CD1c-restricted T cells specifically recognized GPPs from four different sources, including both natural and synthetic analogs of this structure.
# All three CD1-restricted lines preferentially recognized the α-saturated MPDs typical of eukaryotes more potently than the α-unsaturated GPPs typical of prokaryotes. Krag, S. S. (1998) Biochem. Biophys. Res. Comm. 243:1-5. […]
# [8] = test system: CD1a, CD1b and MHC class I restricted T cell lines; assay: Stimulation of CD1a, CD1b and MHC class I restricted T cell lines (mitogenicity control); type: cell-based
# [9] = cytokine activated macrophages / CD1+ APCs
# CD1b, sequence (P61769 21-119): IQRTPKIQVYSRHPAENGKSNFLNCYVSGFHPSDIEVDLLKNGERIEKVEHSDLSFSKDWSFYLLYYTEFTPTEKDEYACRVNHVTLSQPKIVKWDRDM
# CD1b, sequence (P29016 18-303): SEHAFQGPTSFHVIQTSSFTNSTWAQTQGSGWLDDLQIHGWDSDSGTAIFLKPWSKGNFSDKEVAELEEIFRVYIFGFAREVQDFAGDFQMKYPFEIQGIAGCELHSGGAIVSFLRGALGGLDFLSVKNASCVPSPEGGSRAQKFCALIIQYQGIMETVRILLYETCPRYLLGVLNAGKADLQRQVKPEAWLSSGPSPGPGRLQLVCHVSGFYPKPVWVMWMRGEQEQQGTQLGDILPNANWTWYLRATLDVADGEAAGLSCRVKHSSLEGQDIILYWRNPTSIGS
molecule,measurement,setting,value
"CC(C)=CCCC(C)=CCCC(C)=CCCC(C)=CCCC(C)=CCCC(C)=CCCC(C)=CCOP(=O)(O)O[C@@H]1O[C@H](CO)[C@@H](O)[C@H](O)[C@@H]1O (relative stereo) [semi-synthetic MPP, β-D-mannopyranosyl-1-monophosphoryl-(poly-cis, di-trans, α-unsaturated) heptaprenol]",CD8-1 response to antigen,[1],responded significantly
"CC(C)=CCCC(C)=CCCC(C)=CCCC(C)=CCCC(C)=CCCC(C)=CCCC(C)=CCCC(C)=CCCC(C)=CCCC(C)=CCCC(C)=CCCC(C)=CCCC(C)=CCCC(C)=CCCC(C)=CCCC(C)=CCCC(C)=CCCC(C)=CCCC(C)CCOP(=O)(O)O[C@@H]1O[C@H](CO)[C@@H](O)[C@H](O)[C@@H]1O (relative stereo) [β-D-mannopyranosyl-1-monophosphoryl-(poly-cis, di-trans, α-saturated) nondecaprenol]",CD8-1 response to antigen,[1],responded significantly
"CCCCCCCCCCCCCCCCCCCCCCCCCCCCCC(=O)OC[C@H]1OC(O)[C@H](O)[C@@H](O)[C@@H]1O (stereo partly drawn) [G6T, Glucose-6-o-triacontanoate]",binding to CD1b,CD1b; pH not given,did not bind to CD1b
CCCCCCCCCCCCCC(O)CC(=O)OC[C@@H](O)[C@@H](O)[C@H](O)[C@@H](O)C=O (stereo partly drawn) [glucose 6-O-3-hydroxypalmitate],LDN5 proliferative response to antigen,[2]; [9],did not respond
galactose monomycolate,LDN5 proliferative response to antigen,[2],responded very weakly or not at all
glucose monomycolate [GMM],LDN5 proliferative response to antigen,[2],stimulated LDN5; also recorded: proliferated at similar doses
same,lysis of CD1b transfected C1R target cells by LDN5,[3],lysed CD1b transfected C1R lymphoblastoid target cells
same,"lysis of mock, CD1a or CD1c transfectants by LDN5",[4],"not similarly treated mock, CD1a or CD1c transfectants"
same,DN1 response to antigen,[5],not to GMM
same,binding to CD1b at pH 4.0,CD1b; pH 4.0,occurring at pH 4.0
same,binding to CD1b at pH 7.0,CD1b; pH 7.0,not at pH 7.0
same,T cell recognition after treating APCs with fixing or endosome pH neutralizing agents,APCs,blocked by agents that fix APC membranes or neutralized the pH of endosomes
same,rate of uptake by APCs,APCs,taken up by APCs at the same rate
same,proliferative response of other T cell lines,[6],not 14 other T cell lines tested
mannose monomycolate,LDN5 proliferative response to antigen,[2],responded very weakly or not at all
mannosyl phosphodolichol [MPD],CD8-1 response to antigen,[1],"recognized the 2,3 dihydro analog, mannosyl phosphodolichol (MPD), at much lower concentration"
same,recognition by two other CD1c-restricted T cell lines,[7],recognized MPD
same,"stimulation of CD1a, CD1b and MHC class I restricted T cell lines",[8],did not stimulate
mannosyl phosphoheptaprenol [MPP],CD8-1 response to antigen,[1],did respond to the pure MPP
"trehalose dimycolate [TDM, reference compound]",cleavage by APCs to antigenic free mycolates or GMM,APCs,unable to cleave
"α,α trehalose dimycolate [purified cord factors from M. phlei, reference compound]",LDN5 proliferative response to antigen,[2]; [9],not antigenic for LDN5
